Results from patent publication US20200032214A1, “METHOD FOR PRODUCING MYOCARDIAL STEM CELL USED FOR TREATMENT AND/OR PREVENTION OF CARDIAC ARREST” (LUCA Science Inc., priority 2016, published 2020).

System: mitochondrial membrane potential
Experiment: Mitochondrial membrane potential with fluorescent dye JC-1
Format: cell-based, mouse
Details: microscopy; FIG. 15
Description: For MA-Cell, and CPC prepared in Example 1, the mitochondrial membrane potential was examined using fluorescent dye JC-1 (Invitrogen) in accordance with manufacturer's protocol. JC-1 emits red fluorescence with a wavelength of 590 nm when accumulating on polarized mitochondria, and JC-1 is diffused into the cytoplasm to emit green fluorescence with a wavelength of 529 nm when mitochondria are depolarized (the membrane potential is eliminated).
Further, for 19 cells for each of MA-Cell and CPC, a ratio of the fluorescence intensity of polarized mitochondria (red, Dimer) to the fluorescence intensity of depolarized mitochondria (green, Monomer) (Dimer/Monomer ratio) was calculated (FIG. 16).

Question: `N#CC(C#N)=NNc1ccc(OC(F)(F)F)cc1` [FCCP] was tested. Which “JC-1 red fluorescence (polarized mitochondria)” value did it give?
Answer: Its value is “red fluorescence was substantially eliminated”.
